# Results published in the supplement of paper PMC5412046.
# Key:
# [1] = tested on: SB.msgc-1; assay: AC50 for growth inhibition (viability) (log10 M); higher = less potent; settings: SB.msgc-1 (sporadic gastric cancer)
# Method in brief: (§1)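 Gastric cancer cells derived from patients with hereditary or sporadic disease were seeded at 500 cells in 5 μL medium per 1536 well. A pintool delivered 23 nL of compound in DMSO, as 11 threefold dilutions from a final 46 μM. After 48 h, CellTiter-Glo was added for 30 min at room temperature and luminescence was read on a ViewLux. The log half-maximal activity concentration was taken from a four-parameter fit of viability normalised to DMSO, using only high-quality curve classes.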
# [2] = tested on: SB.mhdgc-1; assay: as above; settings: SB.mhdgc-1 (hereditary c.1380delA CDH1 gastric cancer)
# Method in brief: as §1
SMILES,AC50 for growth inhibition (log10 M) [1],AC50 for growth inhibition (log10 M) [2]
c1ccc(CCCN2CCN(CCOC(c3ccccc3)c3ccccc3)CC2)cc1,-4.68,-4.73
c1ccc(CNc2nc(NCc3ccccc3)c3ccccc3n2)cc1,-5.03,-5.03
CC(=O)Nc1sc2c(c1-c1nc3ccccc3s1)CNC2,-4.68,-6.08
CC(=O)NCC(=O)N1[C@@H]2CC[C@H]1c1ccc(Nc3ncc(C(F)(F)F)c(NC4CCC4)n3)cc12,-5.33,-5.48
CC(C)c1cc(C(=O)N2Cc3ccc(CN4CCN(C)CC4)cc3C2)c(O)cc1O,-6.78,-6.53
CC(C)Oc1ccc(C(=O)N[C@H](CNC(=O)CN(C)C)Cc2ccc(-c3cn4cccc([C@H](C)O)c4n3)cc2)cc1Cl,-6.63,-5.18
C=CC(=O)Nc1cccc(Nc2nc(NC3CCC(N(C)C)CC3)nc3c2ncn3C(C)C)c1 (stereo unspecified),-7.43,-7.88
CC(NCc1ccc2c(c1)[nH]/c(=N\C(=O)c1ccc(-c3cn[nH]c3)s1)n2CC(C)(C)O)C(C)(C)C (stereo unspecified),-6.18,-5.43
CC(O)(C#Cc1ccc2c(c1)N(c1nc(N)ncc1Cl)CC2)c1nccs1 (stereo unspecified),-4.88,-4.73
Cc1c(C(=O)c2cccc3ccccc23)c2cccc3c2n1[C@H](CN1CCOCC1)CO3,-5.08,-4.93
Cc1ccc(CN2CCNCC2)cc1NC(=O)CNc1ccc(F)c(F)c1,-5.38,-5.93
Cc1ccc2nc(NCCN)c3ncc(C)n3c2c1,-5.18,-6.18
CC1=CC=CC=C1N2\C(=N/C3=C(C(=CC=C3)C)C2=O)C[N]4C=NC5=C4N=CN=C5N,-6.23,-5.43
Cc1cccc(-c2[nH]c(C(C)(C)C)nc2-c2ccc3c(c2)OCO3)n1,-4.88,-4.83
Cc1cccc(-c2[nH]c(C(C)(C)C)nc2-c2ccc3nccnc3c2)n1,-5.73,-4.83
Cc1n[nH]c2ccc(-c3cncc(OC[C@@H](N)Cc4c[nH]c5ccccc45)c3)cc12,-6.08,-6.03
CCc1cc(-c2n[nH]c(C)c2-c2ccc3c(c2)OCCO3)c(O)cc1O,-5.68,-5.53
CCCCOc1c(C(=O)c2c(F)cc(C)cc2F)cnc2[nH]ncc12,-5.63,-5.63
CCN(CC)CCCCNc1ncc2c(n1)N(C)C(=O)N(c1c(Cl)c(OC)cc(OC)c1Cl)C2,-4.63,-4.78
CCOC(=O)N1CCN(/[N+]([O-])=N/Oc2ccc([N+](=O)[O-])cc2[N+](=O)[O-])CC1,-4.88,-5.23

SMILES,AC50 for growth inhibition (log10 M) [1],AC50 for growth inhibition (log10 M) [2]
Cc1ccc(NC(=O)c2cccc(N(C)C)c2)cc1NC(=O)c1ccc(O)cc1,-5.78,-6.48
CN(C)CCCN\C1=C\2C(=O)N(C)C(=O)\N=C2N(C)C3=C1C=CC=C3,-4.73,-5.73
Cc1cc(CN2CCN(c3c(Br)cnc4[nH]c(-c5ccc(N6CCN(C)CC6)cc5)nc34)CC2)no1,-4.68,-4.63
CNC(=O)c1ccc(Nc2cc(Nc3ccccc3[S+](=O)([O-])C(C)C)c3cc[nH]c3n2)nc1,-4.68,-4.78
COc1cc(C)c(Sc2cnc(NC(=O)c3ccc(CNC(C)C(C)(C)C)cc3)s2)cc1C(=O)N1CCN(C(C)=O)CC1 (stereo unspecified),-4.98,-4.98
COc1cc(N2CCC(C(N)=O)CC2)ccc1Nc1nc(N)c(Cl)c(Nc2ccccc2[S+](=O)([O-])C(C)C)n1,-5.58,-6.03
COc1cc2nc(N3CCCN(C)CC3)nc(NC3CCN(Cc4ccccc4)CC3)c2cc1OC,-4.88,-5.28
COc1cccc2c(NCc3ccccc3)nc(-n3c(N)nc4ccccc43)nc12,-5.08,-5.13
COC1=CC(=CC(=C1)C2=CC=C3N=CC\4=C(N(C(=O)\C=C4)C5=CC(=C(C=C5)N6CCNCC6)C(F)(F)F)C3=C2)OC,-5.43,-5.33
COc1cc(NC(=O)c2ccc(-c3ccc(Cl)cc3)o2)cc(OC)c1,-5.58,-5.73
COc1cc(C(=O)NC2CCN(C)CC2)ccc1Nc1ncc2c(n1)N(C1CCCC1)CCC(=O)N2C(C)C,-4.73,-5.13
COc1cc2ncnc(Nc3cccc(Br)c3)c2cc1OC,-6.88,-7.08
COC1=CC=C(C=N1)C/2=C/C3=C(C)N=C(N)N=C3N(C4CCC(CC4)OCCO)C2=O (stereo unspecified),-7.18,-7.88
COC1=CC=CC2=C1C(=NC(=N2)C3=CC=CS3)NN4C(=O)\C=C(C)/C4=O,-4.88,-5.18
COC1CCC(C(=O)c2ccc3nc4c(cc3c2)CCCO4)CC1 (stereo unspecified),-4.78,-4.78
C[C@H](NC(=O)c1sccc1OCc1ccc(Cl)cc1)c1ccccc1,-4.73,-4.98
C[C@H]1CN(C[C@@H](C)O1)CC(=O)NC2=CC=C3SC4=C(CC3=C2)C=CC=C4\C5=C\C(=O)\C=C(/O5)N6CCOCC6,-5.28,-5.23
C[C@]\1(CCS\C(=N1)N)C2=CC(=C(F)C=C2F)C3=CN=CN=C3,-4.63,-4.73
Cn1cc(-c2cnn3c(N)c(Br)c([C@H]4CCCNC4)nc23)cn1,-6.83,-5.88
CC(=O)N1CCN(c2ccc(OCc3nn(C)c(C)c3-c3cccc4c(CCCOc5cccc6ccccc56)c(C(=O)O)n(Cc5cccnc5)c34)cc2)CC1,-5.63,-5.63

SMILES,AC50 for growth inhibition (log10 M) [1],AC50 for growth inhibition (log10 M) [2]
Cc1cc(OCCCc2c(C(=O)O)n(Cc3cccnc3)c3c(-c4c(COc5ccc(N6CCN([S+](C)(=O)[O-])CC6)cc5)nn(C)c4C)cccc23)cc(C)c1Cl,-4.63,-4.73
C[S+](=O)([O-])N1CCc2c(-c3cnc(N)nc3)nc(N3CCOCC3)nc21,-6.43,-5.68
O=C(Nc1ccc(F)c(C(F)(F)F)c1)Nc1nnc(-c2ccncc2)s1,-5.28,-5.53
C=CC(=O)N1CCC[C@@H](n2nc(-c3ccc(Oc4ccccc4)cc3)c3c(N)ncnc32)C1,-7.48,-5.98
Nc1ccc(C(=O)Nc2cccc(-c3nc(N4CCOCC4)c4oc5ncccc5c4n3)c2)cn1,-5.18,-5.38
Nc1n[nH]c2nnc(-c3c(-c4ccccc4)nn4ccccc34)cc12,-5.23,-5.03
NC\1=N\C(=O)N(\C=C1F)[C@H]2C[C@H](O)[C@@H](CO)O2,-6.53,-8.38
N[S+]([O-])(=O)C1=CC=C(NC/2=C/C(=O)C3=CC=CC=C3C2=O)C=C1,-4.98,-6.23
O=C(NC1CC1)c1cccc(-c2ccc3c(NC(=O)C4CC4)n[nH]c3c2)c1,-6.03,-5.93
O=C(NOCC1CC1)c1ccc(F)c(F)c1Nc1ccc(I)cc1Cl,-4.83,-4.78
O=C1NC(=O)/C(=C/c2ccc3nccnc3c2)S1,-4.89,-4.84
O=C(O)C1CCCN(CCC=C(c2ccccc2)c2ccccc2)C1 (stereo unspecified),-5.03,-5.53
O=[S+]([O-])(O)c1ccc2cc(/N=N/c3cc([S+](=O)([O-])O)c4cccnc4c3O)ccc2c1,-4.93,-4.68
O=C(CC12CC3CC(CC(C3)C1)C2)Nc1cccc2nc(NCCNCCO)ccc12,-4.78,-4.83
O=C1CSC(=O)N1C(CCc1ccncc1)COc1ccc(-c2cccc([N+](=O)[O-])c2)cc1 (stereo unspecified),-5.78,-5.88
O=C(Nc1nc2ccccc2n1CCN1CCOCC1)c1cccc([N+](=O)[O-])c1,-4.83,-4.83
NC(CSC(c1ccccc1)(c1ccccc1)c1ccccc1)C(=O)O (stereo in doubt) [S-Trityl-L-cysteine],-5.03,-5.58
Nc1nc(F)nc2c1ncn2[C@@H]1O[C@H](CO)[C@@H](O)[C@H]1O [2-Fluoroadenosine],-6.23,-6.23
